Assay results reported in ChEMBL document CHEMBL4020793 (Bioorg Med Chem Lett, 2017).

Key:
Type in all cases: functional, cell-based
L1210 = experiment: Antiproliferative activity against mouse L1210 cells assessed as cell viability after 72 hrs by MTS assay; details: L1210, 72 h
HCT-116 = experiment: Antiproliferative activity against human HCT116 cells assessed as cell viability after 72 hrs by MTS assay; details: HCT-116, 72 h
HCT-116/VM46 = experiment: Antiproliferative activity against vinblastine-resistant human HCT116/VM46 cells assessed as cell viability after 72 hrs by MTS assay; details: HCT-116/VM46, 72 h

CC[C@]12C=CCN3CC[C@@]4(c5cc([C@@]6(C(=O)OC)C[C@@H]7CN(CCc8c6[nH]c6ccccc86)C[C@](O)(CCC#N)C7)c(OC)cc5N(C)[C@H]4[C@@](O)(C(=O)OC)[C@@H]1OC(C)=O)[C@@H]32
IC50 (L1210): 80 nM | IC50 (HCT-116): 80 nM | IC50 (HCT-116/VM46): 8000 nM

CCC[C@]1(O)C[C@H]2CN(CCc3c([nH]c4ccccc34)[C@@](C(=O)OC)(c3cc4c(cc3OC)N(C)[C@H]3[C@@](O)(C(=O)OC)[C@H](OC(C)=O)[C@]5(CC)C=CCN6CC[C@]43[C@@H]65)C2)C1
IC50 (L1210): 300 nM | IC50 (HCT-116): 420 nM | IC50 (HCT-116/VM46): > 1000 nM

CC[C@]12C=CCN3CC[C@@]4(c5cc([C@@]6(C(=O)OC)C[C@@H]7CN(CCc8c6[nH]c6ccccc86)C[C@@]6(O)CCCC[C@H]76)c(OC)cc5N(C)[C@H]4[C@@](O)(C(=O)OC)[C@@H]1OC(C)=O)[C@@H]32
IC50 (L1210): 6 nM | IC50 (HCT-116): 6 nM | IC50 (HCT-116/VM46): 200 nM

CC[C@]12C=CCN3CC[C@@]4(c5cc([C@@]6(C(=O)OC)C[C@@H]7CN(CCc8c6[nH]c6ccccc86)C[C@](O)(CCF)C7)c(OC)cc5N(C)[C@H]4[C@@](O)(C(=O)OC)[C@@H]1OC(C)=O)[C@@H]32
IC50 (L1210): 7.5 nM | IC50 (HCT-116): 6.3 nM | IC50 (HCT-116/VM46): 420 nM

CC[C@]12C=CCN3CC[C@@]4(c5cc([C@@]6(C(=O)OC)C[C@@H]7CN(CCc8c6[nH]c6ccccc86)C[C@](O)(CCN=[N+]=[N-])C7)c(OC)cc5N(C)[C@H]4[C@@](O)(C(=O)OC)[C@@H]1OC(C)=O)[C@@H]32
IC50 (L1210): 65 nM | IC50 (HCT-116): 70 nM | IC50 (HCT-116/VM46): 3000 nM

CC[C@]12C=CCN3CC[C@@]4(c5cc([C@@]6(C(=O)OC)C[C@@H]7CN(CCc8c6[nH]c6ccccc86)C[C@@]6(O)CCCC[C@@H]76)c(OC)cc5N(C)[C@H]4[C@@](O)(C(=O)OC)[C@@H]1OC(C)=O)[C@@H]32
IC50 (L1210): 0.6 nM | IC50 (HCT-116): 0.7 nM | IC50 (HCT-116/VM46): 60 nM

CCCC[C@]1(O)C[C@H]2CN(CCc3c([nH]c4ccccc34)[C@@](C(=O)OC)(c3cc4c(cc3OC)N(C)[C@H]3[C@@](O)(C(=O)OC)[C@H](OC(C)=O)[C@]5(CC)C=CCN6CC[C@]43[C@@H]65)C2)C1
IC50 (L1210): 480 nM | IC50 (HCT-116): 790 nM | IC50 (HCT-116/VM46): > 1000 nM

CC[C@]12C=CCN3CC[C@@]4(c5cc([C@@]6(C(=O)OC)C[C@@H]7CN(CCc8c6[nH]c6ccccc86)C[C@](O)(CCO)C7)c(OC)cc5N(C)[C@H]4[C@@](O)(C(=O)OC)[C@@H]1OC(C)=O)[C@@H]32
IC50 (L1210): > 1000 nM | IC50 (HCT-116): > 1000 nM | IC50 (HCT-116/VM46): > 1000 nM
